How the values were obtained:
Melmet 5 cells = assay: subcutaneous Melmet 5 melanoma model; format: in vivo, mice; details: daily i.p. from 2 weeks: 20 mg/kg β-sitosterol, 25 mg/kg PLX4720, or both
From the text: (§1) • Figure 1: In vivo drug screening. (Figure left) Number of brain metastases at T1-weighted MRI with contrast (Student's t-test). (Figure right) Kaplan-Meier survival plot (Mantel-Cox log-rank test). There was no significant difference between vehicle- and memantine-treated mice. * P < 0.05; ** P < 0.01. All values are given as the mean ± s.e.m. • Figure 2: In vivo validation of β-sitosterol treatment-1. (Figure left) Number of brain metastases assessed by T1-weighted MRI with contrast (Student's t-test). The mean number of brain metastases in the vehicle group decreased slightly from seven to eight weeks as four mice with the greatest number of brain metastases were sacrificed between these observation points. (Figure right) Kaplan-Meier survival plot (Mantel-Cox log-rank test). The experiment was terminated at 100 days, and three mice in the β-sitosterol group were still alive and healthy. * P < 0.05; ** P < 0.01; **** P < 0.0001. All values are given as the mean ± s.e.m. • Figure 3: In vivo validation of β-sitosterol on H1_DL2 brain metastasis-2. (Figure left) Body weight from week zero to eight. […] After 24 hours, the drugs were added to the wells, incubated for 72 hours, and then viability was assessed using an MTS assay. […] After 24 hours, the drugs were added to the wells, incubated for 72 hours, and then viability was assessed using an MTS assay. […]

brain metastases = assay: in vivo drug screening in human-to-mouse brain metastasis model; details: compared with vehicle-treated mice; for survival: Kaplan-Meier
From the text: (§2) • Figure 1: In vivo drug screening. (Figure left) Number of brain metastases at T1-weighted MRI with contrast (Student's t-test). (Figure right) Kaplan-Meier survival plot (Mantel-Cox log-rank test). There was no significant difference between vehicle- and memantine-treated mice. * P < 0.05; ** P < 0.01. All values are given as the mean ± s.e.m. • Figure 2: In vivo validation of β-sitosterol treatment-1. (Figure left) Number of brain metastases assessed by T1-weighted MRI with contrast (Student's t-test). The mean number of brain metastases in the vehicle group decreased slightly from seven to eight weeks as four mice with the greatest number of brain metastases were sacrificed between these observation points. (Figure right) Kaplan-Meier survival plot (Mantel-Cox log-rank test). The experiment was terminated at 100 days, and three mice in the β-sitosterol group were still alive and healthy. * P < 0.05; ** P < 0.01; **** P < 0.0001. All values are given as the mean ± s.e.m. • Figure 3: In vivo validation of β-sitosterol on H1_DL2 brain metastasis-2. (Figure left) Body weight from week zero to eight. […] (Figure right) Volume of brain metastases at MRI (T1-weighted with contrast). Total volume of brain metastases per animal was compared at group level. Student's t-test: n.s. P ≥ 0.05, * P < 0.05, ** P < 0.01, *** P < 0.001, **** P < 0.0001. All values are given as the mean ± s.e.m. • Figure 4: In vivo validation of β-sitosterol on PC14-PE6-Br2 brain metastases. Mice were injected intracardially with 5 x 10^5 PC14-PE6-Br2 cells. Test groups received daily i.p. injections of 0.1 mL vehicle (olive oil; n =4) or β-sitosterol 5 mg/kg (n = 6). (Figure left) Total volume of brain metastases at MRI at three weeks (T1-weighted with contrast). Total volume of brain metastases per animal was compared at group level. (Figure right) Kaplan-Meier survival plot (Mantel-Cox log-rank test: *** P < 0.001). All values are given as the mean ± s.e.m. • Figure 5: In vitro and in vivo effects on additional melanoma metastatic cell lines. (Figure left) Half maximal inhibitory concentration (IC50) values for β-sitosterol, PLX4720 and the combination thereof in Melmet 1, Melmet 5 and A375 cell lines (n = 3). (Figure right) Subcutaneous tumor volume ([width2 x length]/2) in mice injected with […] Melmet 5 cells. Mice were from 2 weeks onwards given daily i.p. injections of 0.1 mL vehicle (olive oil), 20 mg/kg β-sitosterol in olive oil, 25 mg/kg PLX4720 in 0.05% DMSO, or a combination of the two latter (n = 8 in each group). Representative images of tumors at 44 days are shown in the right panel. Student's t-test: * P < 0.05, ** P < 0.01. Values are given as the mean ± s.e.m. • Figure 6: In vitro effects of other BRAF and MEK inhibitors on human melanoma brain metastatic cell lines. 5000 cells (human BRAF mutated melanoma brain metastatic cell lines H1, H9 or H10) were plated in each well of a 96 well dish. After 24 hours, the drugs were added to the wells, incubated for 72 hours, and then viability was assessed using an MTS assay. […] 5000 cells were plated in each well of a 96 well dish. After 24 hours, the drugs were added to the wells, incubated for 72 hours, and then viability was assessed using an MTS assay.
We next investigated the efficacy of thiostrepton, memantine, and β-sitosterol using a highly standardized human-to-mouse brain metastasis model (Sundstrøm T et al, Cancer Res 2013;73:2445-2456). Drug treatment was commenced one week after tumor cell injections.

four melanoma cell lines = assay: monolayer viability and tumorsphere assays; format: cell-based; details: among top 10 candidate compounds from cMap
From the text: Based on RNA sequencing of tumors in brains, adrenals, bone and ovaries from mice, we defined a 108-gene brain metastasis signature using a comparative work-flow of independent analyses of gene expression profiles from brain versus other organ metastases in a human BRAF-mutant melanoma xenograft model. […] For further studies, we concentrated on the top 10 candidate anti-brain metastatic compounds. To test the efficacy of the candidate compounds, we performed monolayer viability and tumorsphere assays in four melanoma cell lines (Daphu I et al, Int J Mol Sci 2014;15:8773.8794, Netland IA et al, J Neurooncol 2016;129:57-66). IC50 values were generally lower in tumorspheres than in monolayers, and there was substantial variation in cell line sensitivity.

H1 cells = assay: MTS viability assay; format: cell-based, human
From the text: (§3) • Figure 1: In vivo drug screening. (Figure left) Number of brain metastases at T1-weighted MRI with contrast (Student's t-test). (Figure right) Kaplan-Meier survival plot (Mantel-Cox log-rank test). There was no significant difference between vehicle- and memantine-treated mice. * P < 0.05; ** P < 0.01. All values are given as the mean ± s.e.m. • Figure 2: In vivo validation of β-sitosterol treatment-1. (Figure left) Number of brain metastases assessed by T1-weighted MRI with contrast (Student's t-test). The mean number of brain metastases in the vehicle group decreased slightly from seven to eight weeks as four mice with the greatest number of brain metastases were sacrificed between these observation points. (Figure right) Kaplan-Meier survival plot (Mantel-Cox log-rank test). The experiment was terminated at 100 days, and three mice in the β-sitosterol group were still alive and healthy. * P < 0.05; ** P < 0.01; **** P < 0.0001. All values are given as the mean ± s.e.m. • Figure 3: In vivo validation of β-sitosterol on H1_DL2 brain metastasis-2. (Figure left) Body weight from week zero to eight. […] (Figure right) Volume of brain metastases at MRI (T1-weighted with contrast). Total volume of brain metastases per animal was compared at group level. Student's t-test: n.s. P ≥ 0.05, * P < 0.05, ** P < 0.01, *** P < 0.001, **** P < 0.0001. All values are given as the mean ± s.e.m. • Figure 4: In vivo validation of β-sitosterol on PC14-PE6-Br2 brain metastases. Mice were injected intracardially with 5 x 10^5 PC14-PE6-Br2 cells. Test groups received daily i.p. injections of 0.1 mL vehicle (olive oil; n =4) or β-sitosterol 5 mg/kg (n = 6). (Figure left) Total volume of brain metastases at MRI at three weeks (T1-weighted with contrast). Total volume of brain metastases per animal was compared at group level. (Figure right) Kaplan-Meier survival plot (Mantel-Cox log-rank test: *** P < 0.001). All values are given as the mean ± s.e.m. • Figure 5: In vitro and in vivo effects on additional melanoma metastatic cell lines. (Figure left) Half maximal inhibitory concentration (IC50) values for β-sitosterol, PLX4720 and the combination thereof in Melmet 1, Melmet 5 and A375 cell lines (n = 3). (Figure right) Subcutaneous tumor volume ([width2 x length]/2) in mice injected with […] Melmet 5 cells. Mice were from 2 weeks onwards given daily i.p. injections of 0.1 mL vehicle (olive oil), 20 mg/kg β-sitosterol in olive oil, 25 mg/kg PLX4720 in 0.05% DMSO, or a combination of the two latter (n = 8 in each group). […] After 24 hours, the drugs were added to the wells, incubated for 72 hours, and then viability was assessed using an MTS assay. […] After 24 hours, the drugs were added to the wells, incubated for 72 hours, and then viability was assessed using an MTS assay. […]

MDA-MB-231 = assay: MTS viability assay; format: cell-based, human
From the text: as §3

H10 cells = assay: MTS viability assay; format: cell-based, human
From the text: as §3

H1_DL2 brain metastasis = assay: in vivo validation of β-sitosterol treatment, treatment commenced before cell injection; set-up: species or system mice
From the text: as §2
To validate our β-sitosterol treatment findings, we carried out a new and more extensive in vivo study in which treatment commenced before cell injection.

H9 cells = assay: MTS viability assay; format: cell-based; details: Homo sapiens, H9, 72 h, read-out: cell viability
From the text: as §1

[1] = test system: PC14-PE6-Br2 brain metastases; assay: in vivo validation on lung adenocarcinoma brain metastases; set-up: species or system mice; details: 5 mg/kg daily i.p.
From the text: • Figure 1: In vivo drug screening. (Figure left) Number of brain metastases at T1-weighted MRI with contrast (Student's t-test). (Figure right) Kaplan-Meier survival plot (Mantel-Cox log-rank test). There was no significant difference between vehicle- and memantine-treated mice. * P < 0.05; ** P < 0.01. All values are given as the mean ± s.e.m. • Figure 2: In vivo validation of β-sitosterol treatment-1. (Figure left) Number of brain metastases assessed by T1-weighted MRI with contrast (Student's t-test). The mean number of brain metastases in the vehicle group decreased slightly from seven to eight weeks as four mice with the greatest number of brain metastases were sacrificed between these observation points. (Figure right) Kaplan-Meier survival plot (Mantel-Cox log-rank test). The experiment was terminated at 100 days, and three mice in the β-sitosterol group were still alive and healthy. * P < 0.05; ** P < 0.01; **** P < 0.0001. All values are given as the mean ± s.e.m. • Figure 3: In vivo validation of β-sitosterol on H1_DL2 brain metastasis-2. (Figure left) Body weight from week zero to eight. […] After 24 hours, the drugs were added to the wells, incubated for 72 hours, and then viability was assessed using an MTS assay. […] After 24 hours, the drugs were added to the wells, incubated for 72 hours, and then viability was assessed using an MTS assay.

[2] = human, mda-mb-231 cells, 72 h, 35 µM
[3] = MRI, treatment commenced one week after tumor cell injections

Compound: CCCS(=O)(=O)Nc1ccc(F)c(C(=O)c2c[nH]c3ncc(Cl)cc23)c1F [PLX4720, reference compound]
- subcutaneous tumor growth (Melmet 5 cells): effective as monotherapies

Compound: CC12CC3CC(C)(C1)CC(N)(C3)C2 [memantine, reference compound]
- survival (brain metastases): did not affect survival
- reducing viability and tumorsphere growth (four melanoma cell lines): most potent

Compound: C=C(NC(=O)C(=C)NC(=O)c1csc(C2=N[C@@H]3c4csc(n4)[C@H]4NC(=O)c5csc(n5)[C@H]([C@](C)(O)[C@@H](C)O)NC(=O)[C@H]5CSC(=N5)/C(=C/C)NC(=O)[C@H]([C@@H](C)O)NC(=O)c5csc(n5)[C@]3(CC2)NC(=O)[C@H](C)NC(=O)C(=C)NC(=O)[C@H](C)NC(=O)[C@H]([C@@H](C)CC)N[C@@H]2C=Cc3c([C@H](C)O)cc(nc3[C@H]2O)C(=O)O[C@@H]4C)n1)C(N)=O [thiostrepton, reference compound]
- survival (brain metastases): significantly shorter lifespan
- reducing viability and tumorsphere growth (four melanoma cell lines): most potent

Compound: CC(=O)Nc1cccc(-n2c(=O)n(C3CC3)c(=O)c3c(Nc4ccc(I)cc4F)n(C)c(=O)c(C)c32)c1 [trametinib, reference compound]
- cell viability (H1 cells; h1 cells, 72 h, 50 µM): ~60%
- cell viability (MDA-MB-231; [2]): around 44%

Compound: CCCS(=O)(=O)Nc1ccc(F)c(C(=O)c2c[nH]c3ncc(-c4ccc(Cl)cc4)cc23)c1F [vemurafenib, reference compound]
- cell viability (H10 cells; h10 cells, 72 h, 50 µM): around 25%
- cell viability (MDA-MB-231; [2]): ~73%

Compound: CC[C@H](CC[C@@H](C)[C@H]1CC[C@H]2[C@@H]3CC=C4C[C@@H](O)CC[C@]4(C)[C@H]3CC[C@]12C)C(C)C [β-sitosterol]
- survival (H1_DL2 brain metastasis; Kaplan-Meier, compared with vehicle treatment, terminated at 100 days): significant survival benefit
- volumes of brain metastases (H1_DL2 brain metastasis; MRI T1-weighted with contrast, compared with vehicle group): significantly lower volumes
- number of brain metastases (H1_DL2 brain metastasis; T1-weighted MRI with contrast, compared with vehicle group): significantly fewer brain metastases
- mice healthy and tumor-free (H1_DL2 brain metastasis; at 100 days, evaluated by brain MRI and histology): three out of nine
- average body weight (H1_DL2 brain metastasis; at 100 days, three remaining mice, mean ± s.e.m.): 26.7 ± 0.6 grams
- body weight (H1_DL2 brain metastasis; week zero to eight, vehicle-treated mice lost weight from four weeks onwards): maintained a stable body weight
- cell viability (H10 cells; 50uM beta-sitosterol, 5uM vemurafenib, 72 hours, compared to the untreated cells): around 80%
- cell viability (H1 cells; 50uM beta-sitosterol, 5nM trametinib, 72 hours, compared with untreated cells): around 85%
- survival (brain metastases): survived significantly longer
- number of brain metastases (brain metastases; [3]): significant reduction
- volume of brain metastases (brain metastases; [3]): significant reduction
- viability at 50 µM (H9 cells): 85%
- cell viability (MDA-MB-231; 35uM beta-sitosterol, 0.5uM trametinib, 72 hours (Figure 7 left)): around 48%
- cell viability (MDA-MB-231; 35uM beta-sitosterol, 5uM vemurafenib, 72 hours (Figure 7 right)): around 44%
- survival ([1]; Kaplan-Meier): prolonged survival
- brain metastatic burden ([1]; MRI at three weeks, compared with vehicle): significant reduction
- subcutaneous tumor growth (Melmet 5 cells): effective as monotherapies
- reducing viability and tumorsphere growth (four melanoma cell lines): most potent

From EP3560516A1, “COMBINATION THERAPY INCLUDING BETA-SITOSTEROL IN COMBINATION WITH AT LEAST ONE OF A BRAF INHIBITOR, A MEK INHIBITOR OR AN ERK INHIBITOR AND METHODS AND USE THEREOF” (Bergen Teknologioverføring AS, priority 2018, dated 2019)
